Test results published in PubChem BioAssay AID1963447 (Molecular Pharmacology Branch, DTP, NCI, 2024).
“And” between values parts separate entries of the source, which are not always exact repeats. Equal entries are not always repeated.

System: 885512-296-R-J2-PDC complex spheroid growth, % test/control
Test: Anticancer human tumor 885512-296-R-J2-PDC patient-derived breast carcinoma cell line growth inhibition [Asc]
Details: for viability, T/C: stronger effect = lower value
Experimental: Multicellular complex tumor spheroid response to apoptosis pathway targeting inhibitors Alrizomadlin, Pelcitoclax, and Dasminapant in combination with a variety of drugs and investigational agents in selected tumor cell lines
The MDM2 inhibitor alrizomadlin, the Bcl-2/Bcl-xL inhibitor pelcitoclax, and the IAPs inhibitor dasminapant were evaluated both individually and in combination with standard of care and investigational anticancer small molecules within a complex spheroid model of solid tumors. . Complex spheroids include a stromal component modeled by human endothelial cells (HUVEC) and fibroblasts modeled by human mesenchymal stem cells (MSCs). The concentration ranges selected for each drug and investigational agent were based upon clinically achievable concentrations if the clinical Cmax of the agent was known.
Compounds. The drugs and investigational agents: alrizomadlin (APG-115; NSC831270), pelcitoclax (APG-1252; NSC835773), dasminapant (APG-1387;NSC834197), TAK-243 (NSC785004), copanlisib (NSC809693), olaparib (NSC753686), talazoparib (NSC767125), cobimetinib (NSC 768068), eltanexor (KPT-8602, NSC 794443), abemaciclib (NSC 768073), sotorasib (NSC818433), adagrasib (NSC 831453), MRTX-1133 (NSC 836407), Iadademestat (ORY1001, NSC 806812), and RMC-4630 (NSC839698), were obtained from the NCI Developmental Therapeutics Program Chemical Repository. The FDA-approved anticancer drug set is available from the Developmental Therapeutics Program at https://dtp.cancer.gov/organization/dscb/obtaining/available plates.htm. […] The stock solutions were prepared in dimethyl sulfoxide (DMSO, Sigma-Aldrich, St. Louis, MO, cat. D2650) at 800-fold the tested concentration and stored at -70 degrees C prior to their use. All drugs and investigational agents were tested over a range starting from a high concentration at or near the clinical Cmax and decreasing in half-log increments. If the clinical Cmax for an agent had not been determined, the highest concentration tested was 10 microM.
The patient-derived cancer (PDC) cell lines include five colon adenocarcinomas: 186277-243-T-J2-PDC, 616215-338-R-J1-PDC, 439559-082-T-J2-PDC, 463943-066-T-J2-PDC, and 519858-162-T-J1-PDC; three pancreatic carcinomas: 323965-272-R-J2-PDC, 521955-158-R6-J3-PDC, and 521955-158-R2-J5-PDC; two uterine sarcomas: 327498-152-R-J2-PDC and 993429-296-R-J1-PDC; two rhabdomyosarcomas: 755483-174-R-J1-PDC and 772245-204-R-J1-PDC; two soft tissue sarcomas: 126254-015-R-J1-PDC and 494315-158-R-J1-PDC; two malignant fibrous histiocytomas: 317291-083-R-J1-PDC and 596521-263-R-J1-PDC; two breast carcinomas: 171881-019-R-J1-PDC and 885512-296-R-J2-PDC; and one ovarian carcinoma: 6556581-035-R-J-PDC were obtained from the NCI PDMR, (https://pdmr.cancer.gov). The established cell lines HSSY-2 synovial sarcoma (RRID:CVCL 8719), SYO-1 synovial sarcoma (RRID:CVCL_7146), MPNST malignant peripheral neural sheath tumor were obtained from the Sloan Kettering Institute. The following established cell lines were purchased from the American Type Culture Collection (ATCC, Manassas, VA), Sor the received from the NCI repository:, PANC-1 pancreatic carcinoma (CRL-1469, RRID:CVCL_0480), OVCAR-5 ovarian carcinoma (RRID:CVCL_1628), OVCAR-8 ovarian carcinoma (RRID:CVCL_1629), , MCF-7 breast carcinoma (CRL-12584, RRID:CVCL_0031), MDA-MB-231 breast carcinoma (CRL-12532, RRID:CVCL_0062), NCI-H1876 small cell lung carcinoma (CRL-5902, RRID:CVCL_1503), NCI-H510A small cell lung carcinoma (HTB-184, RRID:CVCL_1565), NCI-H1417 (CRL-5869, RRID:CVCL_1469), and NCI-H196 small cell lung carcinoma (CRL-5823, RRID:CVCL_1509). Dr. Peter Houghton (Greehey Children's Cancer Research Institute, University of Texas Health Science Center, San Antonio, TX) provided Rh-18 rhabdomyosarcoma (RRID:CVCL_1659). Pooled donor human umbilical vein endothelial cells (HUVEC, Lonza, cat. CC-2519) and human mesenchymal stem cells (hMSC, Lonza, cat. PT-2501) were purchased from Lonza (Walkersville, MD).
Cell Culture. […]
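Also: spheroids exposed to compounds for seven days.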
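For viability, T/C in this document: 100% = DMSO vehicle control wells.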

## C#Cc1c(F)ccc2cc(O)cc(-c3ncc4c(N5CC6CCC(C5)N6)nc(OCC56CCCN5CC(F)C6)nc4c3F)c12 (stereo not given) + CCN1C(C(=O)NC23CCC(C(=O)O)(CC2)CC3)C(c2cccc(Cl)c2F)C2(C(=O)Nc3cc(Cl)ccc32)C12CCCCC2
Curve of first compound, second compound 0.03 µM
  IC50: > 10 µM
Curve of first compound, second compound 0.0949 µM
  IC50: > 10 µM
Curve of first compound, second compound 0.3 µM
  IC50: > 10 µM
Curve of first compound, second compound 0.949 µM
  IC50: > 10 µM
Curve of first compound, second compound 3 µM
  IC50: < 0.0316 µM
Second compound 0.03 µM, first compound 0.0316 µM
  viability, T/C: 105%
Second compound 0.03 µM, first compound 0.1 µM
  viability, T/C: 98%
Second compound 0.03 µM, first compound 0.316 µM
  viability, T/C: 107%
Second compound 0.03 µM, first compound 1 µM
  viability, T/C: 82.8%
Second compound 0.03 µM, first compound 3.16 µM
  viability, T/C: 107%
Second compound 0.03 µM, first compound 10 µM
  viability, T/C: 80.3%
Second compound 0.0949 µM, first compound 0.0316 µM
  viability, T/C: 117%
Second compound 0.0949 µM, first compound 0.1 µM
  viability, T/C: 101%
Second compound 0.0949 µM, first compound 0.316 µM
  viability, T/C: 91.4%
Second compound 0.0949 µM, first compound 1 µM
  viability, T/C: 89.1%
Second compound 0.0949 µM, first compound 3.16 µM
  viability, T/C: 95.6%
Second compound 0.0949 µM, first compound 10 µM
  viability, T/C: 83.2%
Second compound 0.3 µM, first compound 0.0316 µM
  viability, T/C: 95.7%
Second compound 0.3 µM, first compound 0.1 µM
  viability, T/C: 86.5%
Second compound 0.3 µM, first compound 0.316 µM
  viability, T/C: 93.3%
Second compound 0.3 µM, first compound 1 µM
  viability, T/C: 82.4%
Second compound 0.3 µM, first compound 3.16 µM
  viability, T/C: 78.3%
Second compound 0.3 µM, first compound 10 µM
  viability, T/C: 88.7%
Second compound 0.949 µM, first compound 0.0316 µM
  viability, T/C: 80.5%
Second compound 0.949 µM, first compound 0.1 µM
  viability, T/C: 59.9%
Second compound 0.949 µM, first compound 0.316 µM
  viability, T/C: 69.1%
Second compound 0.949 µM, first compound 1 µM
  viability, T/C: 64.7%
Second compound 0.949 µM, first compound 3.16 µM
  viability, T/C: 70%
Second compound 0.949 µM, first compound 10 µM
  viability, T/C: 84.7%
Second compound 3 µM, first compound 0.0316 µM
  viability, T/C: 53.7%
Second compound 3 µM, first compound 0.1 µM
  viability, T/C: 42.1%
Second compound 3 µM, first compound 0.316 µM
  viability, T/C: 38%
Second compound 3 µM, first compound 1 µM
  viability, T/C: 43.5%
Second compound 3 µM, first compound 3.16 µM
  viability, T/C: 51.2%
Second compound 3 µM, first compound 10 µM
  viability, T/C: 61.7%

## CNC(C)C(=O)NC1CN(S(=O)(=O)c2cccc(S(=O)(=O)N3CCC4CCC(C(=O)NC(c5ccccc5)c5ccccc5)N4C(=O)C(NC(=O)C(C)NC)C3)c2)CCC2CCC(C(=O)NC(c3ccccc3)c3ccccc3)N2C1=O (stereo not given)
Compound 0.00316 µM
  viability, T/C: 84.1% and 81%
Compound alone, run of 10/03/2022
  IC50: > 1 µM
Curve of compound
  IC50: > 1 µM

## NC1CCC(NC2CC2c2ccccc2)CC1 (stereo not given)
Compound 0.000316 µM
  viability, T/C: 128% and 119% and 118%
Compound 0.001 µM
  viability, T/C: 129% and 116% and 126%
Compound 0.00316 µM
  viability, T/C: 118% and 117% and 122%
Compound 0.01 µM
  viability, T/C: 127% and 125% and 122%
Compound 0.0316 µM
  viability, T/C: 130% and 120% and 127%
Compound 0.1 µM
  viability, T/C: 122% and 110% and 125%
Curve of compound
  IC50: > 0.1 µM

## C=CC(=O)N1CCN(c2nc(=O)n(-c3c(C)ccnc3C(C)C)c3nc(-c4c(O)cccc4F)c(F)cc23)C(C)C1 (stereo not given) + Cc1c(S(C)(=O)=O)c(-c2cc(F)cc(N3CCN(c4ccc(NS(=O)(=O)c5ccc(NC(CCN6CCC(C(=O)OCCCP(=O)(O)O)CC6)CSc6ccccc6)c(S(=O)(=O)C(F)(F)F)c5)cc4)CC3)c2)c(-c2ccc(Cl)cc2)n1C(C)C
Curve of first compound, second compound 0.1 µM
  IC50: > 10 µM
Curve of first compound, second compound 0.316 µM
  IC50: > 10 µM
Curve of first compound, second compound 1 µM
  IC50: > 10 µM
Curve of first compound, second compound 3.16 µM
  IC50: > 10 µM
Curve of first compound, second compound 10 µM
  IC50: > 10 µM
Second compound 0.1 µM, first compound 0.0316 µM
  viability, T/C: 85.3%
Second compound 0.1 µM, first compound 0.1 µM
  viability, T/C: 80.7%
Second compound 0.1 µM, first compound 0.316 µM
  viability, T/C: 92.2%
Second compound 0.1 µM, first compound 1 µM
  viability, T/C: 83.6%
Second compound 0.1 µM, first compound 3.16 µM
  viability, T/C: 87.6%
Second compound 0.1 µM, first compound 10 µM
  viability, T/C: 55.8%
Second compound 0.316 µM, first compound 0.0316 µM
  viability, T/C: 94.3%
Second compound 0.316 µM, first compound 0.1 µM
  viability, T/C: 87.2%
Second compound 0.316 µM, first compound 0.316 µM
  viability, T/C: 86.8%
Second compound 0.316 µM, first compound 1 µM
  viability, T/C: 81.2%
Second compound 0.316 µM, first compound 3.16 µM
  viability, T/C: 101%
Second compound 0.316 µM, first compound 10 µM
  viability, T/C: 74.7%
Second compound 1 µM, first compound 0.0316 µM
  viability, T/C: 80.6%
Second compound 1 µM, first compound 0.1 µM
  viability, T/C: 73.5%
Second compound 1 µM, first compound 0.316 µM
  viability, T/C: 93.3%
Second compound 1 µM, first compound 1 µM
  viability, T/C: 104%
Second compound 1 µM, first compound 3.16 µM
  viability, T/C: 85.7%
Second compound 1 µM, first compound 10 µM
  viability, T/C: 62%
Second compound 3.16 µM, first compound 0.0316 µM
  viability, T/C: 98.7%
Second compound 3.16 µM, first compound 0.1 µM
  viability, T/C: 90.3%
Second compound 3.16 µM, first compound 0.316 µM
  viability, T/C: 109%
Second compound 3.16 µM, first compound 1 µM
  viability, T/C: 106%
Second compound 3.16 µM, first compound 3.16 µM
  viability, T/C: 90.2%
Second compound 3.16 µM, first compound 10 µM
  viability, T/C: 68.3%
Second compound 10 µM, first compound 0.0316 µM
  viability, T/C: 119%
Second compound 10 µM, first compound 0.1 µM
  viability, T/C: 117%
Second compound 10 µM, first compound 0.316 µM
  viability, T/C: 114%
Second compound 10 µM, first compound 1 µM
  viability, T/C: 114%
Second compound 10 µM, first compound 3.16 µM
  viability, T/C: 98.8%
Second compound 10 µM, first compound 10 µM
  viability, T/C: 71.6%
